Data published in ChEMBL document CHEMBL3045955, “Design, synthesis and structure-activity relationship of novel insecticidal dichloro-allyloxy-phenol derivatives containing substituted pyrazol-3-ols” (2013).

Assays:
Format in all cases: functional
Details in all cases: 72 h
[1] = test system: Plutella xylostella; experiment: Insecticidal activity against third-instar larvae of Plutella xylostella (diamondback moth) fed on compound treated cabbage leaves assessed as mortality at 25 mg/l after 3 days relative to control
[2] = test system: Plutella xylostella; experiment: Insecticidal activity against third-instar larvae of Plutella xylostella (diamondback moth) fed on compound treated cabbage leaves assessed as mortality at 100 mg/l after 3 days relative to control
[3] = test system: Plutella xylostella; experiment: Insecticidal activity against third-instar larvae of Plutella xylostella (diamondback moth) fed on compound treated cabbage leaves assessed as mortality at 6.25 mg/l after 3 days relative to control

`Cc1ccccc1-c1cc(OCCCOc2c(Cl)cc(OCC=C(Cl)Cl)cc2Cl)nn1C` was tested, and the mortality at 25 µg/mL [1] was 70%, the mortality at 100 µg/mL [2] was 100% and the mortality at 6.25 µg/mL [3] was 40%.
`Cn1nc(OCCCOc2c(Cl)cc(OCC=C(Cl)Cl)cc2Cl)cc1-c1ccc(Cl)cc1Cl` gave a mortality at 25 µg/mL [1] of 80%, a mortality at 100 µg/mL [2] of 100% and a mortality at 6.25 µg/mL [3] of 0%.
With `Cc1ccc(-c2c(C)c(OCCCOc3c(Cl)cc(OCC=C(Cl)Cl)cc3Cl)nn2C)cc1` the mortality at 25 µg/mL [1] was 100%, the mortality at 100 µg/mL [2] was 100% and the mortality at 6.25 µg/mL [3] was 95%.
Work on `Cc1ccc(-c2c(C)c(OCCOc3c(Cl)cc(OCC=C(Cl)Cl)cc3Cl)nn2C)cc1` yielded a mortality at 25 µg/mL [1] of 0%, a mortality at 100 µg/mL [2] of 17% and a mortality at 6.25 µg/mL [3] of 0%.
With `CCc1ccc(-c2cc(OCCCOc3c(Cl)cc(OCC=C(Cl)Cl)cc3Cl)nn2C)cc1` the mortality at 25 µg/mL [1] was 40%, the mortality at 100 µg/mL [2] was 70% and the mortality at 6.25 µg/mL [3] was 30%.
With `CCc1ccc(-c2c(C)c(OCCCCOc3c(Cl)cc(OCC=C(Cl)Cl)cc3Cl)nn2C)cc1` the mortality at 25 µg/mL [1] was 50%, the mortality at 100 µg/mL [2] was 100% and the mortality at 6.25 µg/mL [3] was 10%.
For `CCOc1ccc(-c2c(C)c(OCCCOc3c(Cl)cc(OCC=C(Cl)Cl)cc3Cl)nn2C)cc1`, the mortality at 25 µg/mL [1] was 20%, the mortality at 100 µg/mL [2] was 100% and the mortality at 6.25 µg/mL [3] was 10%.
`Cc1c(OCCCOc2c(Cl)cc(OCC=C(Cl)Cl)cc2Cl)nn(C)c1-c1ccc(F)cc1` gave a mortality at 25 µg/mL [1] of 80%, a mortality at 100 µg/mL [2] of 100% and a mortality at 6.25 µg/mL [3] of 30%.
For `Cc1c(OCCCOc2c(Cl)cc(OCC=C(Cl)Cl)cc2Cl)nn(C)c1-c1ccc(Cl)c(Cl)c1`, the mortality at 25 µg/mL [1] was 75%, the mortality at 100 µg/mL [2] was 100% and the mortality at 6.25 µg/mL [3] was 50%.
Compound `Cn1nc(OCCCOc2c(Cl)cc(OCC=C(Cl)Cl)cc2Cl)cc1-c1ccc(Cl)cc1` has a mortality at 25 µg/mL [1] of 100%, a mortality at 100 µg/mL [2] of 100% and a mortality at 6.25 µg/mL [3] of 65%.
`Cn1nc(OCCCOc2c(Cl)cc(OCC=C(Cl)Cl)cc2Cl)cc1-c1ccccc1` gave a mortality at 25 µg/mL [1] of 100%, a mortality at 100 µg/mL [2] of 100% and a mortality at 6.25 µg/mL [3] of 75%.
`CCc1ccc(-c2c(C)c(OCCCOc3c(Cl)cc(OCC=C(Cl)Cl)cc3Cl)nn2C)cc1` gave a mortality at 25 µg/mL [1] of 77%, a mortality at 100 µg/mL [2] of 100% and a mortality at 6.25 µg/mL [3] of 60%.
With `Cc1c(OCCCOc2c(Cl)cc(OCC=C(Cl)Cl)cc2Cl)nn(C)c1-c1ccc(Cl)cc1` the mortality at 25 µg/mL [1] was 50%, the mortality at 100 µg/mL [2] was 80% and the mortality at 6.25 µg/mL [3] was 20%.
In the case of `Cc1ccc(-c2c(C)c(OCCCOc3c(Cl)cc(OCC=C(Cl)Cl)cc3Cl)nn2C)cc1C`, the mortality at 25 µg/mL [1] is reported as 100%, the mortality at 100 µg/mL [2] is reported as 100% and the mortality at 6.25 µg/mL [3] is reported as 87%.
`Cc1ccc(C)c(-c2c(C)c(OCCCOc3c(Cl)cc(OCC=C(Cl)Cl)cc3Cl)nn2C)c1` showed a mortality at 25 µg/mL [1] of 67%, a mortality at 100 µg/mL [2] of 75% and a mortality at 6.25 µg/mL [3] of 37%.
Compound `Cc1c(OCCCOc2c(Cl)cc(OCC=C(Cl)Cl)cc2Cl)nn(C)c1-c1ccc(C(C)C)cc1` has a mortality at 25 µg/mL [1] of 100%, a mortality at 100 µg/mL [2] of 100% and a mortality at 6.25 µg/mL [3] of 85%.
Compound `CCc1ccc(-c2c(C)c(OCCOc3c(Cl)cc(OCC=C(Cl)Cl)cc3Cl)nn2C)cc1` has a mortality at 25 µg/mL [1] of 33%, a mortality at 100 µg/mL [2] of 67% and a mortality at 6.25 µg/mL [3] of 0%.
Compound `Cc1ccc(-c2cc(OCCCOc3c(Cl)cc(OCC=C(Cl)Cl)cc3Cl)nn2C)cc1C` has a mortality at 25 µg/mL [1] of 50%, a mortality at 100 µg/mL [2] of 80% and a mortality at 6.25 µg/mL [3] of 0%.
Compound `Cc1c(OCCCOc2c(Cl)cc(OCC=C(Cl)Cl)cc2Cl)nn(C)c1-c1ccccc1` has a mortality at 25 µg/mL [1] of 30%, a mortality at 100 µg/mL [2] of 100% and a mortality at 6.25 µg/mL [3] of 0%.
`COc1ccc(-c2c(C)c(OCCCOc3c(Cl)cc(OCC=C(Cl)Cl)cc3Cl)nn2C)cc1` gave a mortality at 25 µg/mL [1] of 40%, a mortality at 100 µg/mL [2] of 100% and a mortality at 6.25 µg/mL [3] of 10%.
With `Cc1ccc(-c2cc(OCCCOc3c(Cl)cc(OCC=C(Cl)Cl)cc3Cl)nn2C)c(C)c1` the mortality at 25 µg/mL [1] was 50%, the mortality at 100 µg/mL [2] was 90% and the mortality at 6.25 µg/mL [3] was 30%.
`Cc1ccc(-c2c(C)c(OCCCCOc3c(Cl)cc(OCC=C(Cl)Cl)cc3Cl)nn2C)cc1` showed a mortality at 25 µg/mL [1] of 50%, a mortality at 100 µg/mL [2] of 100% and a mortality at 6.25 µg/mL [3] of 42%.
For `Cc1c(OCCCOc2c(Cl)cc(OCC=C(Cl)Cl)cc2Cl)nn(C)c1-c1ccc(C(C)(C)C)cc1`, the mortality at 25 µg/mL [1] was 87%, the mortality at 100 µg/mL [2] was 100% and the mortality at 6.25 µg/mL [3] was 30%.
For `Cc1c(OCCCOc2c(Cl)cc(OCC=C(Cl)Cl)cc2Cl)nn(C)c1-c1ccc(Cl)cc1Cl`, the mortality at 25 µg/mL [1] was 80%, the mortality at 100 µg/mL [2] was 85% and the mortality at 6.25 µg/mL [3] was 67%.
`Cc1ccc(-c2c(C)c(OCCCOc3c(Cl)cc(OCC=C(Cl)Cl)cc3Cl)nn2C)c(C)c1` gave a mortality at 25 µg/mL [1] of 60%, a mortality at 100 µg/mL [2] of 90% and a mortality at 6.25 µg/mL [3] of 30%.
`FC(F)(F)c1ccc(OCCCOc2c(Cl)cc(OCC=C(Cl)Cl)cc2Cl)nc1` [PYRIDALYL] showed a mortality at 25 µg/mL [1] of 100%, a mortality at 100 µg/mL [2] of 100% and a mortality at 6.25 µg/mL [3] of 65%.
